Measurements from patent US20230047208A1, “RNA Splicing Modulation” (The General Hospital Corporation, priority 2020, published 2023).

Test system: wildtype (WT) human fibroblast cell lines
Assay: Transcriptome-wide splicing by RNA sequencing (RNASeq), exon triplet PSI change;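 for Effect: six WT fibroblast lines treated seven days versus DMSO vehicle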;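 for T-PSI: T-PSI is average treated PSI after seven days of treatment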
Format: cell-based
Parameters: key to Effect: Exclusion; Inclusion; Unchanged
Text: FIG. 2A provides a representation of an exon triplet. Exon U is upstream of Exon X, which is upstream of Exon D. R1, R2 and R3 represent RNA sequencing (RNASeq) reads spanning the regions between two adjacent exons. UI1, I1X, XI2 and I2D are four regions flanking the four splice sites of the exon-triplet. Each flanking region consists of 25 exonic base pairs and 75 intronic base pairs.
FIG. 2B provides a volcano plot showing the ψ (PSI: Percent Spliced-In) changes in splicing after treatment with Compound (I). Each dot represents one of the 161,097 expressed exon triplets in human fibroblasts. The x axis represents the ψ changes after treatment and the y axis represents the False Discovery Rate (FDR) (log 10 transformed). […] The horizontal dashed line indicates an FDR of 0.1. The dots on the right side of the right vertical dashed line and above the horizontal dashed line represent the exon-triplets with an increase for Exon X inclusion (Δψ≥0.1 and FDR<0.1) while the dots on left side of the left vertical dashed line and above the horizontal dashed line represent an increase for Exon X exclusion (Δψ≤−0.1 and FDR<0.1). Black dots in-between the two vertical dashed lines represent exon-triplets unchanged from the treatment.
In some aspects, analysis is performed on data derived from the assay to measure the magnitude of splicing to determine the amount of exons spliced into an mRNA transcript that is produced in the presence of Compound (I) relative to the amount in the absence of Compound (I) or presence of a negative control. In a preferred aspect, the method utilized is calculation of change in Percent Spliced In (ΔPSI). […] The ΔPSI value is derived from the formula: […]
The values for “a” and “b” represent the number of reads supporting the probability for potential inclusion or exclusion of an exon in an RNA transcript. The “a” value is derived from the number of reads within an exon triplet covering, in 5′ to 3′ order: the last few bases (>1 nucleotide) of an upstream exon operably linked to the first few bases (>1 nucleotide) of a middle exon. The “b” value is derived from the number of reads within an exon triplet covering, in 5′ to 3′ order: the last few bases (>1 nucleotide) of the middle exon operably linked to the first few bases (>1 nucleotide) of a downstream exon. The number of reads will indicate whether the splice junction of a middle exon has been identified as potentially having a CNN Motif(s) by the CNN Model described herein, wherein the inclusion or exclusion of the middle exon may be modulated in the presence of Compound (I) to produce one or more mature RNA isoforms from the gene transcript. The value for “c” represents the number of reads supporting the exclusion of the middle exon.
The effect on splicing modulation and corresponding splice differences toward exon inclusion or exclusion was determined by counting the RNASeq reads covering two splice junctions of exon triplets (three consecutive exons: Exon U, Exon X, Exon D) and the corresponding intervening introns, then comparing the change in Percent Spliced In (ΔPSI or Δψ) of the middle exon (Exon X) after treatment (as shown in FIG. 2A)^52,53. 934 exon triplets were identified showing differential middle exon inclusion or exclusion in response to Compound (I) treatment. Of these, 254 were exon inclusion events (Δψ≥0.1 and FDR<0.1) and 680 were exon exclusion events (Δψ≤−0.1 and FDR<0.1) (as shown in FIG. 2B). […] The splicing results were evaluated by RT-PCR in independent replicate experiments, confirming all the calculated Δψ values. […]

[1] = NUTM2A-AS1 Exon 89067714-89067817
[2] = ORMDL1 Exon 190647740-190647849
[3] = OSBPL8 Exon 76853639-76853675, Intron1 76844760-76853638
[4] = OSBPL8 Exon 76853639-76853675, Intron1 76844769-76853638
[5] = OSER1-AS1 Exon 42846007-42846322
[6] = PACRGL Exon 20711306-20711396, Intron1 20706438-20711305
[7] = PACRGL Exon 20711306-20711396, Intron1 20709494-20711305

Question: With Clc1nc(NCc2ccncc2)c2cc[nH]c2n1 [Compound (I), 2-chloro-N-(pyridin-4-ylmethyl)-7H-pyrrolo[2,3-d]pyrimidin-4-amine] as the compound, how does the T-PSI (NUTF2 Exon 67881181-67881359) read?
Answer: 0.104

Question: And the ΔPSI (NUTF2 Exon 67881181-67881359)?
Answer: −0.003

Question: And the Effect [1]?
Answer: Exc

Question: And the T-PSI [1]?
Answer: 0.100

Question: And the ΔPSI [1]?
Answer: −0.120

Question: What about the Effect (OARD1 Exon 41036580-41036692) of the same compound?
Answer: Exc

Question: And the T-PSI (OARD1 Exon 41036580-41036692)?
Answer: 0.563

Question: What about the ΔPSI (OARD1 Exon 41036580-41036692) of the same compound?
Answer: −0.267

Question: And the Effect (OCRL Exon 128718321-128718344)?
Answer: Inc

Question: What about the T-PSI (OCRL Exon 128718321-128718344) of the same compound?
Answer: 0.364

Question: What about the ΔPSI (OCRL Exon 128718321-128718344) of the same compound?
Answer: 0.260

Question: And the Effect (ODF2 Exon 131231462-131231632)?
Answer: Exc

Question: What about the T-PSI (ODF2 Exon 131231462-131231632) of the same compound?
Answer: 0.872

Question: What about the ΔPSI (ODF2 Exon 131231462-131231632) of the same compound?
Answer: −0.102

Question: What about the Effect (ODF2L Exon 86822127-86822285) of the same compound?
Answer: Exc

Question: What about the T-PSI (ODF2L Exon 86822127-86822285) of the same compound?
Answer: 0.514

Question: What about the ΔPSI (ODF2L Exon 86822127-86822285) of the same compound?
Answer: −0.272

Question: And the Effect (OFD1 Exon 13781864-13781974)?
Answer: Inc

Question: What about the T-PSI (OFD1 Exon 13781864-13781974) of the same compound?
Answer: 0.981

Question: And the ΔPSI (OFD1 Exon 13781864-13781974)?
Answer: 0.131

Question: And the Effect (OPN3 Exon 241767722-241767881)?
Answer: Unc

Question: What about the T-PSI (OPN3 Exon 241767722-241767881) of the same compound?
Answer: 0.437

Question: What about the ΔPSI (OPN3 Exon 241767722-241767881) of the same compound?
Answer: −0.004

Question: What about the Effect (OPTN Exon 13150138-13150289) of the same compound?
Answer: Inc

Question: And the T-PSI (OPTN Exon 13150138-13150289)?
Answer: 0.387

Question: What about the ΔPSI (OPTN Exon 13150138-13150289) of the same compound?
Answer: 0.176

Question: And the Effect (OPTN Exon 13150962-13151015)?
Answer: Exc

Question: What about the T-PSI (OPTN Exon 13150962-13151015) of the same compound?
Answer: 0.121

Question: And the ΔPSI (OPTN Exon 13150962-13151015)?
Answer: −0.220

Question: And the Effect [2]?
Answer: Exc

Question: What about the T-PSI [2] of the same compound?
Answer: 0.407

Question: And the ΔPSI [2]?
Answer: −0.295

Question: What about the Effect (OS9 Exon 58113882-58114046) of the same compound?
Answer: Exc

Question: And the T-PSI (OS9 Exon 58113882-58114046)?
Answer: 0.344

Question: What about the ΔPSI (OS9 Exon 58113882-58114046) of the same compound?
Answer: −0.181

Question: What about the Effect [3] of the same compound?
Answer: Inc

Question: What about the T-PSI [3] of the same compound?
Answer: 0.296

Question: And the ΔPSI [3]?
Answer: 0.200

Question: What about the Effect [4] of the same compound?
Answer: Inc

Question: What about the T-PSI [4] of the same compound?
Answer: 0.269

Question: And the ΔPSI [4]?
Answer: 0.191

Question: What about the Effect [5] of the same compound?
Answer: Unc

Question: And the T-PSI [5]?
Answer: 0.153

Question: What about the ΔPSI [5] of the same compound?
Answer: 0.000

Question: What about the Effect (P4HA2 Exon 131562390-131562914) of the same compound?
Answer: Unc

Question: What about the T-PSI (P4HA2 Exon 131562390-131562914) of the same compound?
Answer: 0.155

Question: What about the ΔPSI (P4HA2 Exon 131562390-131562914) of the same compound?
Answer: −0.007

Question: What about the Effect (P4HA2 Exon 131562625-131562914) of the same compound?
Answer: Unc

Question: What about the T-PSI (P4HA2 Exon 131562625-131562914) of the same compound?
Answer: 0.160

Question: What about the ΔPSI (P4HA2 Exon 131562625-131562914) of the same compound?
Answer: −0.007

Question: And the Effect (PACRGL Exon 20709426-20709493)?
Answer: Exc

Question: And the T-PSI (PACRGL Exon 20709426-20709493)?
Answer: 0.666

Question: What about the ΔPSI (PACRGL Exon 20709426-20709493) of the same compound?
Answer: −0.179

Question: What about the Effect [6] of the same compound?
Answer: Exc

Question: What about the T-PSI [6] of the same compound?
Answer: 0.462

Question: What about the ΔPSI [6] of the same compound?
Answer: −0.305

Question: What about the Effect [7] of the same compound?
Answer: Exc

Question: What about the T-PSI [7] of the same compound?
Answer: 0.563

Question: What about the ΔPSI [7] of the same compound?
Answer: −0.242

Question: What about the Effect (PACRGL Exon 20726431-20726511) of the same compound?
Answer: Exc

Question: What about the T-PSI (PACRGL Exon 20726431-20726511) of the same compound?
Answer: 0.095

Question: What about the ΔPSI (PACRGL Exon 20726431-20726511) of the same compound?
Answer: −0.120

Question: What about the Effect (PAM Exon 102309820-102310140) of the same compound?
Answer: Exc

Question: And the T-PSI (PAM Exon 102309820-102310140)?
Answer: 0.478

Question: And the ΔPSI (PAM Exon 102309820-102310140)?
Answer: −0.123

Question: And the Effect (PARD3 Exon 34625127-34625171)?
Answer: Unc

Question: What about the T-PSI (PARD3 Exon 34625127-34625171) of the same compound?
Answer: 0.805

Question: And the ΔPSI (PARD3 Exon 34625127-34625171)?
Answer: −0.003

Question: And the Effect (PARD3 Exon 34739245-34739376)?
Answer: Exc

Question: What about the T-PSI (PARD3 Exon 34739245-34739376) of the same compound?
Answer: 0.584

Question: What about the ΔPSI (PARD3 Exon 34739245-34739376) of the same compound?
Answer: −0.165

Question: What about the Effect (PARL Exon 183551512-183551613) of the same compound?
Answer: Exc

Question: And the T-PSI (PARL Exon 183551512-183551613)?
Answer: 0.819

Question: And the ΔPSI (PARL Exon 183551512-183551613)?
Answer: −0.118

Question: And the Effect (PARP6 Exon 72543186-72543295)?
Answer: Inc

Question: What about the T-PSI (PARP6 Exon 72543186-72543295) of the same compound?
Answer: 0.902
